According to patent US20120172340A1, “Compositions and Methods for Selectively Activating Human Sirtuins” (BIOMOL International L.P., priority 2004, published 2012):
Where a chain is given by its changes, count along the chain named.

Tests used:
[1] = target: T1, dSir2 (Drosophila melanogaster, UniProt Q9VK34, DEL53-54/DUP289-290/L518H/P746H/V753F); assay: Resveratrol dose-response, fluorogenic deacetylation, dSir2; assay type: biochemical, D. melanogaster; conditions: 25° C., 50 μM NAD+, 50 μM Fluor de Lys acetylated lysine substrate; FIG. 1
T1 construct: made in house; host or cells: E. coli
T1 sequence (Q9VK34 other isoform, or with tags, fused parts or gaps DEL53-54/DUP289-290/L518H/P746H/V753F): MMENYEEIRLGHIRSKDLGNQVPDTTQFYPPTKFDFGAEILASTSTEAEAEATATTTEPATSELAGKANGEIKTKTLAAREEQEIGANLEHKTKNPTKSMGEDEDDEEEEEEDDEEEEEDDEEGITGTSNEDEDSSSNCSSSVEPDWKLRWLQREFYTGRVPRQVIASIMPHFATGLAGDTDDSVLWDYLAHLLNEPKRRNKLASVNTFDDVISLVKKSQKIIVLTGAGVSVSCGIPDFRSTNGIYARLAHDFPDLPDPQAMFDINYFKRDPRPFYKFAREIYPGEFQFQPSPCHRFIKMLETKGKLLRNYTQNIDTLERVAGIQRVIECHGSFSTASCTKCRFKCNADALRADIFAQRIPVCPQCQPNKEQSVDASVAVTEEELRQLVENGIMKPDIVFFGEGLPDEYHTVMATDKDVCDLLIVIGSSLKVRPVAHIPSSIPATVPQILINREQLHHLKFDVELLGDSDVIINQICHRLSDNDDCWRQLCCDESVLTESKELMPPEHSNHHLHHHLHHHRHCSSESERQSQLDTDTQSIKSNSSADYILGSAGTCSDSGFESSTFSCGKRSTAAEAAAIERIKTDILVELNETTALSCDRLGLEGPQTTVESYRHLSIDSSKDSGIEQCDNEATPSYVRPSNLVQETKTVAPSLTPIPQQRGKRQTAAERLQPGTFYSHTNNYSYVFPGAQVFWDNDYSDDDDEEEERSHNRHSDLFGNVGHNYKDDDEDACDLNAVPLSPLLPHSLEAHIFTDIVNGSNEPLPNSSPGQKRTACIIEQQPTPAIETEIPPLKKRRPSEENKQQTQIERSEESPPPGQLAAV

[2] = target: T2, ySir2 (Saccharomyces cerevisiae, UniProt P06700); assay: Resveratrol dose-response, fluorogenic deacetylation, ySir2; assay type: biochemical, S. cerevisiae (budding yeast); conditions: 30° C., 200 μM NAD+, 200 μM p53-382; FIG. 1
T2 construct: made in house; host or cells: E. coli
T2 sequence (P06700 whole entry): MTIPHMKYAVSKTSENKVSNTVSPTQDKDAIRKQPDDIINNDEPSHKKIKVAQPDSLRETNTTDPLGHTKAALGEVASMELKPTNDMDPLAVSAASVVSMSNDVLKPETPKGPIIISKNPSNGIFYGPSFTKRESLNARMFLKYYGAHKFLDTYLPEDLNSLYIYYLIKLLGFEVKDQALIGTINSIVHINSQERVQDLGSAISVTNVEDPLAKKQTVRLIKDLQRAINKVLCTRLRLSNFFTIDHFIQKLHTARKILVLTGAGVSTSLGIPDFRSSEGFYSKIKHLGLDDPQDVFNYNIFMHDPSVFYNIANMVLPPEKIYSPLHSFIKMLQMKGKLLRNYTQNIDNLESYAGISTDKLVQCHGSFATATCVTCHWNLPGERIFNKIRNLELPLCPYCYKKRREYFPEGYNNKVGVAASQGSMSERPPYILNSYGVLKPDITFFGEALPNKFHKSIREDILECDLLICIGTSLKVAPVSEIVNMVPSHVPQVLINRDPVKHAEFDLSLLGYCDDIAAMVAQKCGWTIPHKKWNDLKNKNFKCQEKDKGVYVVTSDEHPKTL

[3] = target: T3, SIRT5Δ1-39 (Homo sapiens, UniProt Q9NXA8); assay: Deacetylation activity of N-terminally truncated SIRT5; assay type: biochemical; conditions: 500 μM resveratrol; 1 mM p53-382 peptide, 12 mM NAD+; compared with full-length SIRT5
T3 construct: in which the first 39 residues were deleted (SIRT5Δ1-39); made in house
T3 sequence (Q9NXA8 40-310): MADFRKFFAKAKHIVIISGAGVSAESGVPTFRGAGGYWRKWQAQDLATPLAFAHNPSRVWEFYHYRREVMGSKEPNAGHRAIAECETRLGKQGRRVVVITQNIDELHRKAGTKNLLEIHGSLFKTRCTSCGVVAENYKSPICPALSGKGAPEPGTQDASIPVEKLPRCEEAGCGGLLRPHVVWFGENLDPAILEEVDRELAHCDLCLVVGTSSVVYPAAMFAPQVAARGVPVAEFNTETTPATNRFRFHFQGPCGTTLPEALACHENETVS

[4] = target: T4, E230K mutant SIRT1 (Homo sapiens, UniProt Q96EB6, E230K); assay: Resveratrol dose-response, fluorogenic deacetylation, E230K mutant SIRT1; assay type: biochemical; conditions: 37° C., 25 μM NAD+, 25 μM p53-382; FIG. 1A
T4 construct: made in house; host or cells: E. coli
T4 sequence (Q96EB6 1-747 E230K): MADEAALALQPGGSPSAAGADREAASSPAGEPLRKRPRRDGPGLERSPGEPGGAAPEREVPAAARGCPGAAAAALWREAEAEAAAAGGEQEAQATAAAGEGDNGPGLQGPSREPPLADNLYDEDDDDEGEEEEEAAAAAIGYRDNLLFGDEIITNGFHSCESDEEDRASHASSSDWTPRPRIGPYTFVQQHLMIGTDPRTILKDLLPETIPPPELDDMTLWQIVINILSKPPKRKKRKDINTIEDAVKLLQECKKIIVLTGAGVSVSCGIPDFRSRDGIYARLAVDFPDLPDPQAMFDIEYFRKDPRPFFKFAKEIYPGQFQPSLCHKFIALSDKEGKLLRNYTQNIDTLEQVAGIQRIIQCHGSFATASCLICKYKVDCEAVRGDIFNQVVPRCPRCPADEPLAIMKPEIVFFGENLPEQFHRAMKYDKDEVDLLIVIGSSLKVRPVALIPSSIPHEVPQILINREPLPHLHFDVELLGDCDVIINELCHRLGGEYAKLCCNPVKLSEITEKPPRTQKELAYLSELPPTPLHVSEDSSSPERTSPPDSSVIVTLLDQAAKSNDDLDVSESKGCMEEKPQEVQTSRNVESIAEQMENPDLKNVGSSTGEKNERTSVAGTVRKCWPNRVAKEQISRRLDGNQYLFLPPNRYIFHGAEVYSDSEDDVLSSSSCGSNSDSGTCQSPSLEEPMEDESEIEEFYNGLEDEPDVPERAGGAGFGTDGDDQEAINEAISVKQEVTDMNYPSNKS

[5] = target: T5, human SIRT5 (Homo sapiens, UniProt Q9NXA8); conditions: 500 μM resveratrol; saturating NAD+ (12 mM)
T5 sequence (Q9NXA8 37-310): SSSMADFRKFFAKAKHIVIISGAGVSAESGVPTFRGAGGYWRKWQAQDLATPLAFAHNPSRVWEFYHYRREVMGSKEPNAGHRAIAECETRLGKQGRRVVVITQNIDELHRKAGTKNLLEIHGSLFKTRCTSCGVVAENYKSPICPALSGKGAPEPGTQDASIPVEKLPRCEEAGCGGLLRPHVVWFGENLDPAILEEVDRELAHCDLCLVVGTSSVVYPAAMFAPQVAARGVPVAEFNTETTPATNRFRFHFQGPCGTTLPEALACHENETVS

[6] = target: T6, human SIRT1 (Homo sapiens, UniProt Q96EB6); assay: SIRT1 rate measurement, fluorogenic p53-382 peptide deacetylation; assay type: biochemical
T6 construct: made in house; host or cells: E. coli
T6 sequence (Q96EB6 1-747): T4 sequence (Q96EB6 1-747 E230K) with K230E

[7] = target: T7, human SIRT3 (Homo sapiens, UniProt Q9NTG7); assay: Resveratrol dose-response, fluorogenic deacetylation, SIRT3; assay type: biochemical; conditions: 37° C., 25 μM NAD+, 25 μM p53-320; FIG. 1
T7 construct: made in house; host or cells: E. coli
T7 sequence (Q9NTG7 1-399): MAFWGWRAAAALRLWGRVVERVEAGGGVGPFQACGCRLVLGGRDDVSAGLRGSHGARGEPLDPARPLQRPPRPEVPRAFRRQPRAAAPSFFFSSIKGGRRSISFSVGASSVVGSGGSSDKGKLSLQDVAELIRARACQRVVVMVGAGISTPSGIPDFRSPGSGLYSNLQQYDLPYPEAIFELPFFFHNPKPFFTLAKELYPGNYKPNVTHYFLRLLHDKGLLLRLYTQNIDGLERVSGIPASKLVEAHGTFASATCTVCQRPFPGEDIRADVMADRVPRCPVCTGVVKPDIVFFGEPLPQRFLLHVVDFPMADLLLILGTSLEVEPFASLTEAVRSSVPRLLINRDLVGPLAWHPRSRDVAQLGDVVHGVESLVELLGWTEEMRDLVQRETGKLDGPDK

## Oc1ccc(/C=C/c2cc(O)cc(O)c2)cc1 [Resveratrol, 3,5,4′-Trihydroxy-trans-stilbene]
[1]
  resveratrol-dependent rate increase, dSir2: rate increases are seen
[2]
  resveratrol-dependent rate increase, ySir2: rate increases are seen
[3]
  stimulation of SIRT5Δ1-39 deacetylation activity: similarly stimulated
[4]
  resveratrol activation of E230K mutant SIRT1: diminished resveratrol activation
[5]
  lowering of the Km for the p53-382 peptide: more than ten-fold
[6]; 37° C., 25 μM NAD+, 25 μM p53-382, FIG. 1
  resveratrol-dependent rate increase, human SIRT1: rate increases are seen
[6]; FIG. 1A
  resveratrol concentration at which maximum rate stimulation occurred, SIRT1: > 100 µM
[7]
  resveratrol-dependent rate increase, human SIRT3: not
